Test results: patent US10485769B2, “Cholesteryl ester transfer protein (CETP) inhibition in the treatment of cancer” (KING ABDULLAH UNIVERSITY OF SCIENCE AND TECHNOLOGY, priority 2015, dated 2019)
Like-named read-outs stand apart in the source and are kept apart here.

Columns and labels:
CETP [1] = assay: CETP mRNA in mice tumor samples, qRT-PCR; format: in vivo; details: 2 mg/kg PL, 5 mg/kg AP
Method: (§1) FIG. 7: Levels of CETP mRNA in tumor (A) and protein in serum (B) in mice tumor samples after treatment with 2 mg/kg PL or 5 mg/kg AP were determined with the RT-PCR and western blotting, respectively. Fold change in expression of serum protein was determined using densitometry analysis of western blots using ImageJ (C). CETP activity in serum was estimated using CETP activity kit (name of kit/manufacturer) (D). Values represent the means±SD of three independent experiments. * where p≤0.05, and ** where p≤0.005.
(§2) We performed qRT-PCR using mRNA isolated from mice tumor samples to determine the expression of CETP after treatment with PL and AP (FIG. 7A). […] CETP mRNA is translated into 74 kD protein comprised of 476 amino acids that localizes in plasma. […] CETP protein levels in mice serum samples were determined by western blotting (FIG. 7B).

MCF-7 CETP siRNA cells = assay: Total cholesterol in CETP knock-out MCF-7 cells, Amplex Red; format: cell-based, human; details: 10 μM
Method: FIG. 8: Levels of total cholesterol in MCF-7 control (cntl) siRNA and CETP knock-out cells after treatment with 10 μM PL or AP were determined with the Amplex Red assay kit. Values represent the means±SD of three independent experiments.
We measured the amount of cholesterol in CETP knock-out MCF-7 untreated and/or treated with 10 μM AP and PL. […] (FIG. 8).

[2] = Toxicity in MCF-7 xenograft nude mice (survival, body weight, ALT, AST); details: for survival of animals: 5 animals per group
Method: FIG. 3: Comparative efficacy and toxicity study in MCF-7 xenograft nude mouse model of BC. The efficacy of single i.p. injection of vehicle, PL (2 mg/kg) and AP (5 mg/kg) in 5 mice in each group was compared over a period of 21 days.
MCF-7 tumors grown up to 300 mm3 in four nude mice were harvested, dissected into 1-2 mm3 fragments and implanted into the study group for further testing. Nude mice (with tumor volume of 150 mm3) were treated with 25% Polyethylene glycol (PEG) 400 as vehicle, 2 mg/kg PL and 5 mg/kg AP for 21 days during which tumor volume, body weight and, at the time of sacrifice, tumor weight was measured.

MCF-7 cells = assay: MTT assay, viability of MCF-7 cells; details: for effect on cell viability: 1 and 2.5 μM, 24 h
Method: FIG. 1: MTT and APOPercentage assays to assess the differential cytotoxicity and apoptosis inducing potential of AP and PL in MCF-7 cells. Viability was determined using MTT assay after incubating the MCF-7 cells with different concentrations of AP and PL (A), at different time-points (B). The apoptosis inducing potential of 10 μM AP and PL in MCF-7 was determined by using APOPercentage assay performed at intervals of 2 and 6 h.
The activities of a compound described herein can be evaluated by methods known in the art, e.g., MTT (3-[4,5-dimethylthiazol-2-yl]-2,5-diphenyltetrazolium bromide) assay, APOPercentage, clonogenic assay, ATP assay, or Extreme Drug Resistance (EDR) assay. See Freuhauf, J. P. and Manetta, A., Chemosensitivity Testing in Gynecologic Malignancies and Breast Cancer 19, 39-52 (1994), which is incorporated by reference in its entirety. The results are then plotted to generate drug response curves, which allow IC50 values (the concentration of a compound required to inhibit 50% of the population of the treated cells) to be determined. […] In general, however, a dose can be in the range of from about 0.01 to about 10 mg/kg of body weight per day.
As a first step, MCF-7 cells were treated with 1, 2.5, 5 and 10 μM PL or AP for 24 h and percentage viability was determined after 24 h using the MTT assay. […] Next the effect of 10 μM PL drug on cell viability over time was determined. […] The percentage of cells undergoing apoptosis at the early time points i.e. 2 and 6 h was determined by the APOPercentage assay. APOPercentage dye binds to extracellularly exposed phosphatidylserine (PS) on the plasma membrane of apoptotic cells.

CETP [3] = assay: CETP protein in mice serum, western blotting and densitometry; format: in vivo; details: 2 mg/kg PL, 5 mg/kg AP, compared to Vehicle
Method: as §1, §2

BJ cells = assay: BJ cell morphology on treatment (lipid raft staining experiment); format: cell-based, human
[4] = test system: lipid rafts of MCF-7 cells; assay: Lipid raft GM1 staining (CT-B Alexa 488); format: cell-based, human; details: 10 μM, over time (10 min to 2 h)
Method: FIG. 4: Lipid raft GM1 staining in MCF-7 cells with the Vybrant® Alexa Fluor® 488 Lipid Raft Labeling Kit. Cells were cultured in 96-well plates and stained with CT-B Alexa 488 in untreated cells, and after treatment with 10 μM PL or AP for 10 min, 30 min, 1 h and 2 h.
Cholesterol plays an integral role in the formation of lipid rafts, steroid hormone synthesis and cell membrane formation. […] Cancer cells have a greater affinity for cholesterol to pace with demands of proliferation and synthesis of new membranes and lipid rafts. Pathway predictions derived from microarray expression data pointed at the impairment of cholesterol related processes by AP. To confirm whether cholesterol related pathways were affected by PL or AP, we performed lipid raft staining in MCF-7 cells and cholesterol quantitation in both MCF-7 cells and plasma samples obtained from mice. […].

BJ CETP knockdown cells = assay: Apoptosis in BJ CETP knockdown cells; format: cell-based, human; details: 10 μM PL or AP
Method: FIG. 10: The effect of CETP mRNA silencing on MMP (A), Capase-3/7 activity (B) and apoptosis in MCF-7 (C) and BJ (D) untransfected, cntl siRNA and CETP knockout cells after treatment with 10 μM PL or AP. Values represent the means±SD of three independent experiments.
Next, we intended to see if CETP silencing increased sensitivity of MCF-7 cells to apoptosis.

[5] = test system: apoptosis-associated proteins in MCF-7 cells; assay: Western blotting of apoptosis-associated proteins; format: cell-based, human; details: 10 μM; for PARP-1 cleavage: 12 and 24 h time points; for expression of DNA damage marker pH2AX: as early as 2 h, remained elevated
Method: FIG. 2: Mode of induction in MCF-7 cells after treatment with AP and PL was determined by measuring changes in MOMP and levels of apoptosis-associated proteins. The cells were incubated with 10 μM AP and PL for different time intervals to capture the timeline of apoptosis induction in MCF-7 cells. The changes in MOMP were measured using flow cytometry after treating MCF-7 cells with PL and AP for 1, 2 and 4 h (A). […] F).
Intrinsic apoptosis is activated by the mitochondria where MOMP is reduced and the imbalance between pro- and anti-apoptotic factors results in activation of caspases 9, 3 and 7, cleavage of caspase substrate like PARP-1 (Poly [ADP-ribose] polymerase 1) and fragmentation of DNA. After treatment with 10 μM PL and AP alterations in the ratio of Bax and Bcl2 were observed and pro-caspase 9 levels were reduced (FIGS. 2B and C).

[6] = 2 mg/kg PL, 5 mg/kg AP, 21 days

Structure (SMILES) | reduction of CETP expression in tumors (mRNA) (CETP [1]) | total cholesterol in knock-out cells versus control siRNA cells (MCF-7 CETP siRNA cells) | survival of animals [2, 6] | effect on cell viability (MCF-7 cells) | CETP protein levels in serum (CETP [3]) | distribution of lipid rafts (GM1 in plasma membranes) [4] | sensitivity to apoptosis (BJ CETP knockdown cells) | pro-caspase 9 levels [5] | ratio of Bax and Bcl2 [5] | reduction of pro-caspase 7, time observed [5] | PARP-1 cleavage [5] | expression of DNA damage marker pH2AX [5] | other results
CC(=O)Oc1cccc2c1C(=O)C=C(C)C2=O [AP, Acetyl Plumbagin] | 60% | did not show results any different | survived | no significant effect | upregulated | disrupted | no increased sensitivity to apoptosis | reduced | alterations | reduced at 12 h | substantially reduced from full length to the cleaved fragment | significantly increased | reduction of ALT activity ([2]; 5 mg/kg AP): 36%; reduction of AST activity ([2]; 5 mg/kg AP): 7%; body weight ([2]; 5 mg/kg AP, 21 days): remained unaffected; cell viability reduced to (MCF-7 cells; 10 μM, as early as 6 h): 50%; effects on BJ cell morphology (BJ cells; treated with PL or AP): no adverse effects
CC1=CC(=O)c2c(O)cccc2C1=O [PL, 5-hydroxy-2-methyl-1,4-naphthoquinone, reference compound] | no effect | did not show results any different | one mouse died | no significant effect | slightly reduced | disrupted | no increased sensitivity to apoptosis | reduced | alterations | as early as 2 and 6 h | substantially reduced from full length to the cleaved fragment | significantly increased | ALT activity ([2]; 2 mg/kg PL): increased; AST activity ([2]; 2 mg/kg PL): increased; mice succumbed to treatment due to toxicity ([2]; 5 mg/kg PL, within four to six days): 8 mice; viability at 10 µM (MCF-7 cells; Homo sapiens, MCF7, 6 h, read-out: cell viability reduced to): 50%; effects on BJ cell morphology (BJ cells): no adverse effects
